Read-outs that look alike come from different tables or passages of the source.
Columns and labels:
[1] = for temperature of 10 hour half-life: in trichlorobenzene; for t1/2: trichlorobenzene; for 10 hr. t1/2 temp.: Table II, solvent not given
[2] = tested on: rat; settings: in rat; decomposition residue of AIBN; cited from earlier work
[3] = Preliminary toxicological studies compared with AIBN
Excerpt: In general, the new compositions of the present invention eliminate these problems. The tertiary-(alkyl, cycloalkyl, bicycloalkyl or aralkyl) group on the one side of the azo function lowers the melting point of these compounds so that most of them are liquids or low melting solids which can be handled in the melted state. In addition, this tertiary group increases the solubility of these azos so that most of them are completely miscible with the common organic solvents including petroleum hydrocarbons. Thus, no dusting, metering, incorporating, mixing, and dispersing problems are encountered in using these new compositions. […] The less toxic nature of the new compositions coupled with their liquid and high solubility properties allows them to be used in many applications where AIBN cannot be used.

[4] = Thermal decomposition half-life in odorless mineral spirits; format: physicochemical
[5] = Solubility in petroleum / hydrocarbon / common organic solvents; settings: even at temperatures as low as -20°C
[6] = Thermal decomposition half-life in water; format: physicochemical
[7] = Stability in unsaturated polyester-styrene resin at room temperature; format: physicochemical; settings: unsaturated polyester-styrene resin of Example III
Method: An unsaturated polyester resin was made by reacting maleic anhydride (1.0 mole), phthalic anhydride (1.0 mole), and propylene glycol (2.2 moles) until an acid number of 45-50 was obtained. To this was added hydroquinone at a 0.013% concentration. Seven parts of this unsaturated polyester was diluted with 3 parts of monomeric styrene to obtain a homogeneous blend having a viscosity of 13.08 poise and a specific gravity of 1.14.

| SMILES | temperature of 10 hour half-life [1] | further results |
| --- | --- | --- |
| CC(C)(C)N=NC(C)(C#N)C1CC1 (stereo not drawn) [1-t-Butylazo-1-cyano-1-cyclopropylethane] | 62 °C |  |
| CC(C)(C#N)C(C)(C)C#N [2,2,3,3-tetramethylsuccinonitrile] |  | LD50 [2]: 30 mg/kg |
| CC(C)(C)N=NC(C)(C#N)COC(=O)c1ccccc1 (stereo not drawn) [2-t-Butylazo-2-cyano-1-benzoyloxypropane] | approximately 77 °C |  |
| CC(C)C(=O)OCC(C)(C#N)N=NC(C)(C)C (stereo not drawn) [2-t-Butylazo-2-cyano-1-isobutyroyloxypropane] | approximately 79 °C |  |
| CC(C)(C)N=NC(C)(C#N)COC(=O)C(C)(C)C (stereo not drawn) [2-t-Butylazo-2-cyano-1-pivaloyloxypropane] | approximately 75 °C |  |
| CC(C)CCC(C)(C#N)N=NC(C)(C)C (stereo not drawn) [2-t-Butylazo-2-cyano-5-methylhexane] | approximately 78 °C |  |
| CC(C)(C)N=NC(C)(C)C(N)=NO [2-t-Butylazo-2-methylpropionamidoxime] | approximately 90 °C |  |
| CC(C)(C)N=NC1(C#N)CCCCCC1 [Example 1-t-Butylazo-1-cyanocycloheptane, 1-t-Butylazo-1-cyanocycloheptane] | approximately 68 °C |  |
| CC(C)(C)N=NC1(C#N)CCCCCCC1 [Example 1-t-Butylazo-1-cyanocyclooctane, 1-t-Butylazo-1-cyanocyclooctane] | approximately 55 °C |  |
| CC(C)(C)N=NC(C)(C)C#N [Example I, 2-t-Butylazo-2-cyanopropane] | 79 °C | t1/2 ([1]; 70 °C): 40.5 h; t1/2 ([1]; 78.8 °C): 10.0 h; t1/2 ([1]; 90 °C): 2.0 h; t1/2 ([1]; 100 °C): 0.54 h; t1/2 ([1]; 110 °C): 0.20 h; toxicity compared with AIBN [3]: significantly less toxic than AIBN; temperature of 10 hour half-life [4]: 86 °C |
| CC(C)(N=NC1(C#N)CCCCC1)c1ccccc1 [Example LVI, 1-t-Cumylazo-1-cyanocyclohexane] | approximately 62.5 °C |  |
| CC(C)CC(C)(C#N)N=NC(C)(C)c1ccccc1 (stereo not drawn) [Example LVII, 2-t-Cumylazo-2-cyano-4-methylpentane] | approximately 33 °C |  |
| CC(C)(C)N=NC(C)(C)C(N)=O [Example LXIV, 2-t-Butylazo-2-carbamylpropane] | 110 °C |  |
| CC(C)(C)N=NC1(C#N)CCCCC1 [Example V, 1-t-Butylazo-1-cyanocyclohexane] | 96 °C | t1/2 ([1]; 96.3 °C): 10.0 h; t1/2 ([1]; 100 °C): 6.7 h; t1/2 ([1]; 110 °C): 2.3 h; t1/2 ([1]; 120 °C): 0.75 h |
| CCC(C)(C#N)N=NC(C)(C)C (stereo not drawn) [Example VI, 2-t-Butylazo-2-cyanobutane] | around 80 °C | solubility in hydrocarbon solvents [5]: very soluble; temperature of 10 hour half-life [4]: around 82 °C |
| CC(C)CC(C#N)(CC(C)C)N=NC(C)(C)C [Example VII, 4-t-Butylazo-4-cyano-2,6-dimethylheptane] | 61 °C |  |
| CC1CC(C)(C)CC(C#N)(N=NC(C)(C)C)C1 (stereo not drawn) [Example VIII, 1-t-Butylazo-1-cyano-3,3,5-trimethylcyclohexane] | 78 °C |  |
| CC(C)(C)N=NC(C)(C#N)CCC(=O)O (stereo not drawn) [Example X, 4-t-Butylazo-4-cyanovaleric Acid] | 76 °C | temperature of 10 hour half-life [6]: 73 °C |
| CC(C)(C#N)N=NC(C)(C)c1ccccc1 [Example XII, 2-t-Cumylazo-2-cyanopropane] | 50 °C |  |
| CC(C)CC(C)(C#N)N=NC(C)(C)C (stereo not drawn) [Example XXXII, 2-t-Butylazo-2-cyano-4-methylpentane] | approximately 70 °C | period stable in the resin [7]: exceeding 1 month |
| COC(C)(C)CC(C)(C#N)N=NC(C)(C)C (stereo not drawn) [Example XXXIV, 2-t-Butylazo-2-cyano-4-methoxy-4-methylpentane] | approximately 55 °C |  |
| CC(C)(C)N=NC(C)(C#N)C(C)(C)C (stereo not drawn) [IX, 2-t-Butylazo-2-cyano-3,3-dimethylbutane] | 80 °C |  |
| CCCCCCC(C)(C#N)N=NC(C)(C)C (stereo not drawn) [LI, 2-t-butylazo-2-cyanooctane] |  | 10 hr. t1/2 temp. [1]: 79 °C |
| CC1(N=NC2(C#N)CCCCC2)CCCCC1 [LXII, 1-t-(Methylcyclohexyl)azo-1-cyanocyclohexane] | approximately 100 °C |  |
| CC(C)(C)N=NC1(C(N)=O)CCCCC1 [LXIII, 1-t-Butylazo-1-carbamylcyclohexane] | 111 °C |  |
| CCC(C)(C)N=NC(C)(C)C#N [XIV, 2-t-Amylazo-2-cyanopropane] | 79 °C |  |
| CC(C)(C)CC(C)(C#N)N=NC(C)(C)C (stereo not drawn) [XLI, 2-t-butylazo-2-cyano-4,4-dimethylpentane] |  | 10 hr. t1/2 temp. [1]: 52 °C |
| CC(C)(C)N=NC(C)(C#N)c1ccccc1 (stereo not drawn) [XLII, 1-t-butylazo-1-cyano-1-phenylethane] |  | 10 hr. t1/2 temp. [1]: ~ 30 °C |
| CC(C)(C)N=NC1(C#N)C(C)(C)C(=O)C1(C)C [XLIII, 3-t-butylazo-3-cyano-2,2,4,4-tetramethylcyclobutanone] |  | 10 hr. t1/2 temp. [1]: 115 °C |
| CCC(C)(C)N=NC1(C#N)CCCCC1 [XV, 1-t-Amylazo-1-cyanocyclohexane] | approximately 94 °C |  |

Source: patent US3931143A, “Unsymmetrical aliphatic monoazo compounds” (priority 1971, dated 1976)
